According to US12714715B2, “Agent for treating myopia, preventing myopia and/or suppressing myopia progression” (SANTEN PHARMACEUTICAL CO., LTD., priority 2020, dated 2026):

Experiments:
guinea pig myopia model = assay: Test on suppression of myopia progression (axial length elongation and refractive error) in guinea pig myopia model; assay type: in vivo, guinea pig (Slc:Hartley); conditions: for Difference of axial lengths / Difference of refraction: 10 μL topical to goggled right eye once daily 14 days, right eye − left eye, average n=6; for Difference of axial lengths / Difference of refraction / Suppression rate of axial length elongation / Suppression rate of refractive error / Suppression rate of refraction: day 14; for Suppression rate of axial length elongation / Suppression rate of refractive error / Effect on the axial length elongation and the refractive error (summary in words) / Suppression rate of refraction: topical once daily 14 days; for Suppression rate of axial length elongation / Suppression rate of refractive error / Suppression rate of refraction: vs vehicle control group; for Effect on the axial length elongation and the refractive error (summary in words): summary of Examples 1 and 2 (AFDX0250) and Comparative Examples 1 and 2 (AFDX0116)
Method: According to the following procedures, the effect of AFDX0250 on the suppression of myopia progression (the axial length elongation and the refractive error) was evaluated.
AFDX0250 was dissolved in purified water with a buffering agent and a tonicity agent to prepare 0.5% AFDX0250 solution. 1 mol/L sodium hydroxide reagent solution or dilute hydrochloric acid was added to the solution to adjust the pH thereof to neutral. Also, a buffering agent and a tonicity agent were dissolved in purified water to prepare a neutral vehicle. 9.8 mL of the vehicle was mixed with 0.2 mL of 0.5% AFDX0250 solution and stirred to prepare 0.01% AFDX0250 solution. 3 mL, 4 mL and 4.5 mL of the vehicles were mixed with 2 mL, 1 mL and 0.5 mL of 0.01% AFDX0250 solutions, respectively, and stirred to prepare 0.004%, 0.002% and 0.001% AFDX0250 solutions.
A test tube with a diameter of 18 mm was cut off at the level of 10 mm from the bottom, and the cut-off bottom part was glued to one side of Velcro tape (about 20 mm square) with a hole of an appropriate diameter in the center with an adhesive agent to prepare a lens (goggle). 3-week-old guinea pigs (Slc:Hartley) (n=30) were obtained, and the prepared goggle was covered to the right eye of each guinea pig with an adhesive agent to induce myopia to the guinea pigs. The left eye thereof without goggle was used as control.
The […] group, 0.004% AFDX0250 solution administration group, […] group (control group) (n=6 per group). In the AFDX0250 solution administration groups, 10 μL of the AFDX0250 solution in each concentration was topically administered to the right eye of each guinea pig once daily for 14 days from the day when the right eye was covered with the goggle (day 0) to day 13. In the control group, 10 μL of the vehicle was topically administered to the right eye of each guinea pig once daily for 14 days from the day when the right eye was covered with the goggle (day 0) to day 13. In the all groups, 10 μL of the vehicle was topically administered to the left eye at the same frequency of administration as that of each group daily for 14 days from day 0 to day 13. The guinea pigs were reared under a normal rearing condition.
On day 14 from the myopia induction, the axial lengths of right and left eyeballs were measured with an ultrasound axial length measurement device ECHOSCAN US-500 (A-scan) (NIDEK CO., LTD.), and the refractions were measured with the auto refractometer AR-1a (NIDEK CO., LTD.). The difference of axial lengths and the suppression rate of the axial length elongation as well as the difference of refraction and the suppression rate of the refractive error were calculated according to the following formulae. The calculation was performed in Microsoft Excel. Difference of axial lengths (mm)=Axial length of right eye (mm)−Axial length of left eye (mm) Suppression rate of axial length elongation (%)=(1−Difference of axial lengths in AFDX0250 solution administration group/Difference of axial lengths in control group)×100 (Formula) Difference of refraction (D)=Refraction of right eye (D)−Refraction of left eye (D) Suppression rate of refractive error (%)=(1−Difference of refraction in AFDX0250 solution administration group/Difference of refraction in control group)×100 (Formula) (Test Result)
AFDX0250 was dissolved in purified water with a buffering agent and a tonicity agent to prepare 0.5% AFDX0250 solution. 1 mol/L sodium hydroxide reagent solution or dilute hydrochloric acid was added to the solution to adjust the pH thereof to neutral. Also, a buffering agent and a tonicity agent were dissolved in purified water to prepare a neutral vehicle. 4 mL and 4.8 mL of vehicles were mixed with 1 mL and 0.2 mL of 0.5% AFDX0250 solutions, respectively, and stirred to prepare 0.1% and 0.02% of AFDX0250 solutions. Also, 4 mL of the vehicle was mixed with 1 mL of 0.02% AFDX0250 solution and stirred to prepare 0.004% AFDX0250 solution. […]

guinea pigs = assay: Evaluation of mydriatic action (pupil diameter, pupillary light reflex) after repeated topical administration to one eye; assay type: in vivo, guinea pig; conditions: guinea pig, in vivo
Method: An atropine solution was repeatedly topically administered to one eye of a guinea pig to evaluate the effect of the solution on mydriasis.
Atropine sulfate hydrate and glycerin were dissolved in water for injection to prepare 0.001%, 0.0003% and 0.0001% atropine solutions without adjusting the pH.
Each of the prepared solutions was topically administered to the left eye of guinea pigs (the left eyes of 3 guinea pigs for each solution) in a volume of 10 μL once daily for 5 days. The pupil diameter of each guinea pig was measured before the administration on day 5 as well as 1, 2 and 4 hours after the administration to observe the pupillary light reflex. The measured pupil diameters of each guinea pig at each measurement time were averaged to obtain the average value. The obtained average value was defined as the average pupil diameter. Among each average pupil diameter at each measurement time, the longest diameter was defined as the maximum pupil diameter.

[1] = Comparative Example 1, 0.004% solution
[2] = Comparative Example 1, 0.02% solution
[3] = Comparative Example 1, 0.1% solution
[4] = Comparative Example 1, 0.5% solution
[5] = Comparative Example 2, 0.004% solution
[6] = Comparative Example 2, 0.01% solution
[7] = Comparative Example 2, 0.02% solution
[8] = Comparative Example 2, 0.1% solution

For `CCN(CC)CC1CCCCN1CC(=O)N1c2ccccc2C(=O)Nc2cccnc21` (stereo not shown) [AFDX0116, 11-[2-[2-[(diethylamino)methyl]-1-piperidinyl]acetyl]-5,11-dihydro-6H-pyrido[2,3-b][1,4]benzodiazepin-6-one], the “Difference of axial lengths” value (guinea pig myopia model; [1]) was 0.19 mm, the Difference of refraction (guinea pig myopia model; [1]) was −4.74 D and the “Suppression rate of axial length elongation” value (guinea pig myopia model; [1]) was 21.14%. The “Suppression rate of refractive error” value (guinea pig myopia model; [1]) was 45.54%, the “Difference of axial lengths” value (guinea pig myopia model; [2]) was 0.09 mm and the Difference of refraction (guinea pig myopia model; [2]) was −2.17 D. For the same molecule, the “Suppression rate of axial length elongation” value (guinea pig myopia model; [2]) was 62.95%, the “Suppression rate of refractive error” value (guinea pig myopia model; [2]) was 73.10% and the “Difference of axial lengths” value (guinea pig myopia model; [3]) was 0.09 mm. The Difference of refraction (guinea pig myopia model; [3]) was −1.90 D, the “Suppression rate of axial length elongation” value (guinea pig myopia model; [3]) was 63.86% and the “Suppression rate of refractive error” value (guinea pig myopia model; [3]) was 73.17%. The “Difference of axial lengths” value (guinea pig myopia model; [4]) was 0.03 mm, the Difference of refraction (guinea pig myopia model; [4]) was −2.10 D and the “Suppression rate of axial length elongation” value (guinea pig myopia model; [4]) was 87.73%. The “Suppression rate of refractive error” value (guinea pig myopia model; [4]) was 75.86%, the “Difference of axial lengths” value (guinea pig myopia model; [5]) was 0.12 mm and the Difference of refraction (guinea pig myopia model; [5]) was −6.59 D. The “Suppression rate of axial length elongation” value (guinea pig myopia model; [5]) was 22.52%, the “Suppression rate of refractive error” value (guinea pig myopia model; [5]) was 9.96% and the “Difference of axial lengths” value (guinea pig myopia model; [6]) was 0.12 mm. The Difference of refraction (guinea pig myopia model; [6]) was −3.61 D, the “Suppression rate of axial length elongation” value (guinea pig myopia model; [6]) was 21.44% and the “Suppression rate of refractive error” value (guinea pig myopia model; [6]) was 50.71%. The “Difference of axial lengths” value (guinea pig myopia model; [7]) was 0.05 mm, the Difference of refraction (guinea pig myopia model; [7]) was −2.52 D and the “Suppression rate of axial length elongation” value (guinea pig myopia model; [7]) was 69.73%. The “Suppression rate of refractive error” value (guinea pig myopia model; [7]) was 65.61%, the “Difference of axial lengths” value (guinea pig myopia model; [8]) was 0.05 mm and the Difference of refraction (guinea pig myopia model; [8]) was −2.42 D. The “Suppression rate of axial length elongation” value (guinea pig myopia model; [8]) was 68.65%, the “Suppression rate of refractive error” value (guinea pig myopia model; [8]) was 66.87% and the “Concentration showing the anti-myopic effect (comparison in words)” value (guinea pig myopia model; Comparative Examples 1 and 2 compared with Examples 1 and 2) was “higher than that of AFDX0250”. The “Effect on the axial length elongation and the refractive error (summary in words)” value (guinea pig myopia model) was “suppressed the axial length elongation and the refractive error”, the “Mydriatic action (pupil diameter and pupillary light reflex, in words)” value (guinea pigs) was “increased the pupil diameter and decreased the pupillary light reflex” and the “Measurement time of maximum pupil diameter” value (guinea pigs; 5 days) was 2 h.
With `CCN(CC)CC1CCCCN1CC(=O)N1c2ccccc2C(=O)Nc2cccnc21` (single isomer, unassigned; (+)) [AFDX0250, (+)-11-[2-[2-[(diethylamino)methyl]-1-piperidinyl]acetyl]-5,11-dihydro-6H-pyrido[2,3-b][1,4]benzodiazepin-6-one] the “Difference of axial lengths” value (guinea pig myopia model; Example 1, 0.001% solution) was 0.17 mm, the Difference of refraction (guinea pig myopia model; Example 1, 0.001% solution) was −6.12 D and the “Suppression rate of axial length elongation” value (guinea pig myopia model; Example 1, 0.001% solution) was 15.85%. For the same molecule, the “Suppression rate of refraction” value (guinea pig myopia model; Example 1, 0.001% solution) was 22.78%, the “Difference of axial lengths” value (guinea pig myopia model; Example 1, 0.002% solution) was 0.09 mm and the Difference of refraction (guinea pig myopia model; Example 1, 0.002% solution) was −2.78 D. For the same molecule, the “Suppression rate of axial length elongation” value (guinea pig myopia model; Example 1, 0.002% solution) was 55.46%, the “Suppression rate of refraction” value (guinea pig myopia model; Example 1, 0.002% solution) was 64.95% and the “Difference of axial lengths” value (guinea pig myopia model; Example 1, 0.004% solution) was 0.07 mm. The Difference of refraction (guinea pig myopia model; Example 1, 0.004% solution) was −2.39 D, the “Suppression rate of axial length elongation” value (guinea pig myopia model; Example 1, 0.004% solution) was 63.39% and the “Suppression rate of refraction” value (guinea pig myopia model; Example 1, 0.004% solution) was 69.80%. The “Difference of axial lengths” value (guinea pig myopia model; Example 1, 0.01% solution) was 0.06 mm, the Difference of refraction (guinea pig myopia model; Example 1, 0.01% solution) was −3.63 D and the “Suppression rate of axial length elongation” value (guinea pig myopia model; Example 1, 0.01% solution) was 68.58%. The “Suppression rate of refraction” value (guinea pig myopia model; Example 1, 0.01% solution) was 54.19%, the “Difference of axial lengths” value (guinea pig myopia model; Example 2, 0.004% solution) was 0.07 mm and the Difference of refraction (guinea pig myopia model; Example 2, 0.004% solution) was −3.25 D. For the same molecule, the “Suppression rate of axial length elongation” value (guinea pig myopia model; Example 2, 0.004% solution) was 66.85%, the “Suppression rate of refractive error” value (guinea pig myopia model; Example 2, 0.004% solution) was 59.27% and the “Difference of axial lengths” value (guinea pig myopia model; Example 2, 0.02% solution) was 0.05 mm. For the same molecule, the Difference of refraction (guinea pig myopia model; Example 2, 0.02% solution) was −2.52 D, the “Suppression rate of axial length elongation” value (guinea pig myopia model; Example 2, 0.02% solution) was 74.16% and the “Suppression rate of refractive error” value (guinea pig myopia model; Example 2, 0.02% solution) was 68.43%. The “Difference of axial lengths” value (guinea pig myopia model; Example 2, 0.1% solution) was 0.04 mm, the Difference of refraction (guinea pig myopia model; Example 2, 0.1% solution) was −2.05 D and the “Suppression rate of axial length elongation” value (guinea pig myopia model; Example 2, 0.1% solution) was 79.21%. For the same molecule, the “Suppression rate of refractive error” value (guinea pig myopia model; Example 2, 0.1% solution) was 74.35%, the “Difference of axial lengths” value (guinea pig myopia model; Example 2, 0.5% solution) was 0.02 mm and the Difference of refraction (guinea pig myopia model; Example 2, 0.5% solution) was −2.03 D. For the same molecule, the “Suppression rate of axial length elongation” value (guinea pig myopia model; Example 2, 0.5% solution) was 88.48%, the “Suppression rate of refractive error” value (guinea pig myopia model; Example 2, 0.5% solution) was 74.64% and the “Effect on the axial length elongation and the refractive error (summary in words)” value (guinea pig myopia model) was “strongly suppressed the axial length elongation and the refractive error”. For the same molecule, the “Mydriatic action (pupil diameter and pupillary light reflex, in words)” value (guinea pigs) was “increased the pupil diameter and decreased the pupillary light reflex”.
